2 molecules from ChEMBL document CHEMBL5357068, “Discovery of Novel TLR7 Agonists as Systemic Agent for Combination With aPD1 for Use in Immuno-oncology” (ACS Med Chem Lett, 2024) can be followed below.

The source made the active and inactive calls. No cut-off for these calls is given here. A value given as a limit tells only on which side of the number the result lay.

A short description of data set [1]: Metabolic stability in human liver microsomes assessed as compound remaining. Note: time not given here. In kind it is ADME, Microsome. In general terms: Microsomes from liver hold many membrane-bound enzymes, among them those of drug oxidation.
Data set [2] in a line: Metabolic stability in mouse liver microsomes assessed as compound remaining. Note: time not given here. It is filed as ADME, Microsome.
Data set [3] concerns the target Voltage-gated inwardly rectifying potassium channel KCNH2 (Homo sapiens, UniProt Q12809). As to the kind of experiment: Inhibition of hERG by patch clamp assay. It is filed as toxicity. On the technique in general: The hERG channel carries a current that helps repolarise heart muscle cells.
Data set [4] addresses T1, Toll-like receptor 8 (Homo sapiens) (UniProt Q9NR97).
T1 sequence (whole entry): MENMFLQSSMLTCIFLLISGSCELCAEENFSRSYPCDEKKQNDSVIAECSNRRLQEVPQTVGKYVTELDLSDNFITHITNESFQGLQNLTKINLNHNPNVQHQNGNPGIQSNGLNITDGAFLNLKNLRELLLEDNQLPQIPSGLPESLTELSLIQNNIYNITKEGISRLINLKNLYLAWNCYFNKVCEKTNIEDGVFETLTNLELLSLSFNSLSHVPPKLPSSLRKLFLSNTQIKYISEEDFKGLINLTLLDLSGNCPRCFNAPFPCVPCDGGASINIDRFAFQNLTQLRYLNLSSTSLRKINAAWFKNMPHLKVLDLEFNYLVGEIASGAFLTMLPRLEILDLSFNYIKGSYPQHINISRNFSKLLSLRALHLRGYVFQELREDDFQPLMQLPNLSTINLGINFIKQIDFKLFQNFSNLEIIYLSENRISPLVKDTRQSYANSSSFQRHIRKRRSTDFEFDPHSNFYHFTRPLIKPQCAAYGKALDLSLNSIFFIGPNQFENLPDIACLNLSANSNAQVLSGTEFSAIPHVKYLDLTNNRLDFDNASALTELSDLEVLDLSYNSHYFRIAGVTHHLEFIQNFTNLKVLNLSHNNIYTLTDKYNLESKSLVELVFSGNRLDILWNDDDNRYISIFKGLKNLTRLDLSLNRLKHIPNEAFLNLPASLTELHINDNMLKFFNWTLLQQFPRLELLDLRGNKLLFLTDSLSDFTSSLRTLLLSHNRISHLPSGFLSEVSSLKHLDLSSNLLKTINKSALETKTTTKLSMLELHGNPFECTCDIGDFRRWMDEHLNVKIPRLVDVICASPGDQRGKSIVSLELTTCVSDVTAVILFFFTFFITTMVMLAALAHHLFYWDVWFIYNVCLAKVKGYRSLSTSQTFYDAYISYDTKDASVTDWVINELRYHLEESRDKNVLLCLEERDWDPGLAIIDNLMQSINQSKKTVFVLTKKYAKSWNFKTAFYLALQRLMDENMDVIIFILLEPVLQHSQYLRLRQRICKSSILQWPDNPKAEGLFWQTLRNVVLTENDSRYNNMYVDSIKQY
The data set can be described thus: Agonist activity at TLR8 (unknown origin).

Data set [5] deals with T2, Toll-like receptor 7 (Mus musculus, UniProt P58681).
T2 sequence (P58681 whole entry): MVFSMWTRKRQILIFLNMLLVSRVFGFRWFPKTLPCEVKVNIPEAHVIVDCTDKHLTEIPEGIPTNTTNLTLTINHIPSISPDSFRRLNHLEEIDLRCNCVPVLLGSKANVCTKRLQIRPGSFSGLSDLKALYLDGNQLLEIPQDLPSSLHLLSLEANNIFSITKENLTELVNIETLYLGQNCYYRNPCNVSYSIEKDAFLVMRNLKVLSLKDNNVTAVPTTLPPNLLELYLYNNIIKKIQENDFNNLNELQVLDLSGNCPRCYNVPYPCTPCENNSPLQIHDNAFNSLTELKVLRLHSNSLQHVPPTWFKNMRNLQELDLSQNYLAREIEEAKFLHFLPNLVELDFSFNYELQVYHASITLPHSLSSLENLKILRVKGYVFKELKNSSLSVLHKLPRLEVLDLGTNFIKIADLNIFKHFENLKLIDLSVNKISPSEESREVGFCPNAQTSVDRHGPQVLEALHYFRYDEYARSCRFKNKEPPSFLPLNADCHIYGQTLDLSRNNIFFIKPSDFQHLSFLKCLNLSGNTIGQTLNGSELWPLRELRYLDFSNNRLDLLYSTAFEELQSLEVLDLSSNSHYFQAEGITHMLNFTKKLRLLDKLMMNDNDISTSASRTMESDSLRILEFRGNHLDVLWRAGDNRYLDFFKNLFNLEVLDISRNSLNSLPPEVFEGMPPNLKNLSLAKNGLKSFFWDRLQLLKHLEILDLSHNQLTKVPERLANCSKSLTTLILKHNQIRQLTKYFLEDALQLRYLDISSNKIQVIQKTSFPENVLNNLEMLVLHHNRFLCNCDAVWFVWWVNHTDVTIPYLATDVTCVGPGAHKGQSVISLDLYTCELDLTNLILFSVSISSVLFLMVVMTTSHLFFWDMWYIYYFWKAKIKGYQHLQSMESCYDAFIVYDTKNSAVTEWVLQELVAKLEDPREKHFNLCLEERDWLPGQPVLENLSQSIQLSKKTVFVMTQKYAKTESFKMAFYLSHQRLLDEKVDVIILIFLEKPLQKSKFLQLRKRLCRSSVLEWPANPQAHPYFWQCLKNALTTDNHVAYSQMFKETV

Data set [6] in a line: in vitro. Particulars: PHA-activated T cells.
Data set [7] deals with T3, Toll-like receptor 8 (Homo sapiens, UniProt Q9NR97).
T3 sequence (Q9NR97 whole entry): T1 sequence (whole entry)
The data set can be described thus: Agonist activity at human TLR8.

For data set [8], the target named is T2, Toll-like receptor 7. The data set can be described thus: Agonist activity at mouse TLR7.
For data set [9], the target named is Cytochrome P450 3A4 (Homo sapiens, UniProt P08684). The data set can be described thus: Inhibition of CYP3A4 (unknown origin) using 7-benzyloxy-4-(trifluoromethyl)-coumarin as substrate preincubated with compound followed by substrate addition at 30 mins. It is filed as ADME.
Chain of Cytochrome P450 3A4 (P08684 whole entry): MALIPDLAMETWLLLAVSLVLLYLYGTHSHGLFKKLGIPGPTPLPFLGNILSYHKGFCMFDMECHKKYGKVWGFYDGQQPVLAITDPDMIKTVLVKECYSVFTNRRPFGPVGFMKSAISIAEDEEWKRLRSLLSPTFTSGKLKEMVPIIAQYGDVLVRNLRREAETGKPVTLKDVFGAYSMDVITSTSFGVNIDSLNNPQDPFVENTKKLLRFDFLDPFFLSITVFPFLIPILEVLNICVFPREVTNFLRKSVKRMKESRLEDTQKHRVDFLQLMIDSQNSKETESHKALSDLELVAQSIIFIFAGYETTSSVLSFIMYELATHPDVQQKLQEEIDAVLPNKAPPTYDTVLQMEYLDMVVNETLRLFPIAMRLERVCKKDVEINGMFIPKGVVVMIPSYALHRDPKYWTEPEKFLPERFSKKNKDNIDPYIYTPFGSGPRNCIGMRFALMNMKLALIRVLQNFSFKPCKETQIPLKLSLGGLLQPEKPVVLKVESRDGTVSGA

Chain of Voltage-gated inwardly rectifying potassium channel KCNH2 (Q12809 whole entry): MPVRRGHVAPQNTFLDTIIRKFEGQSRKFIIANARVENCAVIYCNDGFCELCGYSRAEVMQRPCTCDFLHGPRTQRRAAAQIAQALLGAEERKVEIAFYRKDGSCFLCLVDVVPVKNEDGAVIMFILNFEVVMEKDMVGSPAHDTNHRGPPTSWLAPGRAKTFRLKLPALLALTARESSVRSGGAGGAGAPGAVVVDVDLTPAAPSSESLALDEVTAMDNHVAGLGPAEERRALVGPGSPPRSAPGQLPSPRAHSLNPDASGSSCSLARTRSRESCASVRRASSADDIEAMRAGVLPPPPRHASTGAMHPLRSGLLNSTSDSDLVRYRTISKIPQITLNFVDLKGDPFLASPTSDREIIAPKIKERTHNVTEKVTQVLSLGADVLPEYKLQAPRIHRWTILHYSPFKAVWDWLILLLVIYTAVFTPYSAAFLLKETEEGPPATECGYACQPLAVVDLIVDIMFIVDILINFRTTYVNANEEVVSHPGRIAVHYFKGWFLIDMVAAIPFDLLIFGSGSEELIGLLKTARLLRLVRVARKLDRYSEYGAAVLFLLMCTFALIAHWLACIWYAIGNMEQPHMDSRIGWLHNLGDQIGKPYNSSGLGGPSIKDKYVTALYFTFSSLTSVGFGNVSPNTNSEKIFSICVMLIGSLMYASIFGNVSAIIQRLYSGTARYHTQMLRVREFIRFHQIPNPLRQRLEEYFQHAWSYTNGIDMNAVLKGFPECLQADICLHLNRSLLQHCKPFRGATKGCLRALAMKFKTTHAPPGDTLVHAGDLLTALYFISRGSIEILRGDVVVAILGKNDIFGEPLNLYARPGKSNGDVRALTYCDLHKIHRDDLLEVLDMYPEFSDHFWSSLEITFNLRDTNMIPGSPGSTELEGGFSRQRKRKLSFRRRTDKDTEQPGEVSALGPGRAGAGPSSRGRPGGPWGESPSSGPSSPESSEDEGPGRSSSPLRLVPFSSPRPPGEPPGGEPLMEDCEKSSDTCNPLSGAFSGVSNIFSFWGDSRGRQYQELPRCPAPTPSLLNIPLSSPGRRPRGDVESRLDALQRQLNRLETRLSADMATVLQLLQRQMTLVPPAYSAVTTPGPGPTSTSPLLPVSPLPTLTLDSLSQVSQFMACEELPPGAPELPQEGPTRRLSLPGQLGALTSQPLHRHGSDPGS

As to `CCC[C@@H](CCO)Nc1nc(N)nc2cnn(Cc3ccc(CNC4CCOCC4)nc3)c12`, the Stability was found to be 100% in data set [1] and 91% in data set [2]. Besides, the IC50 in data set [3] was more than 50 µM; in data set [6] it was more than 25 µM. The result in [4] was inactive. Besides, in data set [5], the EC50 was more than 5 µM.

As to `CCCCNc1nc(N)nc2cnn(Cc3ccc(CNC4CCC4)cc3OC)c12`, the Stability in data set [1] came to 41%; in data set [2], 2%. Moreover, the results for the half-inhibitory concentration (IC50) in [3], in [9] and in data set [6] were 18.8 µM, 6.65 µM and 16 µM, respectively. Moreover, the values for the concentration for a half-maximal effect (EC50) in [7] and in data set [8] were more than 5 µM and 0.121 µM, respectively.

The IC50 is the concentration that gives 50% inhibition. What is called EC50 is the concentration at which the effect is half-maximal.
